Test results published in publication PMC8591201, “Anti-Tumor Activity of AZD4547 Against NTRK1 Fusion Positive Cancer Cells Through Inhibition of NTRKs” (Frontiers in Oncology, 2021).

Experiments:
Assay in all cases: cells
Set-up in all cases: Anti-proliferation, 10-point dose response, CellTiter-Glo luminescence (MTT stated for KM12(Luc)), GI50 fitted in Prism
MV-4-11 = conditions: Homo sapiens, MV4-11, 72 h, read-out: GI50 (µM) a
MDA-MB-453 = conditions: Homo sapiens, MDA-MB-453, 72 h, read-out: GI50 (µM) a
NCI-H2087 = conditions: Homo sapiens, NCI-H2087, 72 h, read-out: GI50 (µM) a
DU-145 = conditions: Homo sapiens, DU-145, 72 h, read-out: GI50 (µM) a
SW620 = conditions: Homo sapiens, SW-620, 72 h, read-out: GI50 (µM) a
LNCaP = conditions: Homo sapiens, LNCaP, 72 h, read-out: GI50 (µM) a
SW480 = conditions: Homo sapiens, SW480, 72 h, read-out: GI50 (µM) a
NCI-H1437 = conditions: Homo sapiens, NCI-H1437, 72 h, read-out: GI50 (µM) a
NCI-H1975 = conditions: Homo sapiens, NCI-H1975, 72 h, read-out: GI50 (µM) a
AN3-CA = conditions: Homo sapiens, AN3-CA, 72 h, read-out: GI50 (µM) a
HCC70 = conditions: Homo sapiens, HCC70, 72 h, read-out: GI50 (µM) a
HCC-78 = conditions: Homo sapiens, HCC78, 72 h, read-out: GI50 (µM) a

**Q.** For `COc1cc(CCc2cc(NC(=O)c3ccc(N4C[C@@H](C)N[C@@H](C)C4)cc3)n[nH]2)cc(OC)c1` [AZD4547], which GI50 (MV-4-11) is on record?
**A.** 0.93 µM

**Q.** And the GI50 (MDA-MB-453)?
**A.** 5.36 µM

**Q.** What about the GI50 (NCI-H2087) of the same compound?
**A.** 27.4 µM

**Q.** What about the GI50 (DU-145) of the same compound?
**A.** 10.7 µM

**Q.** What about the GI50 (SW620) of the same compound?
**A.** 11 µM

**Q.** What about the GI50 (LNCaP) of the same compound?
**A.** 22.7 µM

**Q.** What about the GI50 (SW480) of the same compound?
**A.** 14.1 µM

**Q.** What about the GI50 (NCI-H1437) of the same compound?
**A.** 40.3 µM

**Q.** What about the GI50 (NCI-H1975) of the same compound?
**A.** 28.9 µM

**Q.** What about the GI50 (AN3-CA) of the same compound?
**A.** 0.2 µM

**Q.** What about the GI50 (HCC70) of the same compound?
**A.** 16.6 µM

**Q.** And the GI50 (HCC-78)?
**A.** 7.17 µM
